Reference: patent US8148422B2, “Sulfonamides as TRPM8 modulators” (Janssen Pharmaceutica, NV, priority 2008, dated 2012)

Biological target: T1, canine TRPM8 (Canis lupus familiaris, UniProt Q1A7N1)
T1 construct: expressed in transfected cells
Test: In vitro canine TRPM8 functional assay (Ca2+-sensitive fluorescent dye, FLIPR or FDSS, icilin challenge)
Format: cell-based
Settings: HEK293 cells stably expressing canine TRPM8; for inhibition at 0.2 µM: 0.2 μM compound, icilin challenge; for IC50: icilin at approx. 80% maximal response, eight-point dose-response, single determinations unless otherwise noted, read-out: IC50
Description: The functional activity of compounds of the formula (I) was determined by measuring changes in intracellular calcium concentration using a Ca^2+-sensitive fluorescent dye. The changes in fluorescent signal were monitored by a fluorescence plate reader, either a FLIPR™ (Molecular Devices) or FDSS (Hamamatsu).
At 24 hrs prior to assay, HEK293 cells stably expressing canine TRPM8 were seeded in culture medium in black wall, clear-base poly-D-lysine coated 384-well plates (BD Biosciences, NJ, USA) and grown overnight in 5% CO2 at 37° C. On assay day, growth media was removed and cells were loaded with Calcium 3 Dye (Molecular Devices) for 35 min at 37° C., under 5% CO2 and then for 25 min at room temperature and atmosphere. Subsequently, cells were tested for agonist-induced increases in intracellular Ca^2+ levels using FLIPR™ or FDSS. Cells were challenged with a compound of the Formula (I) (at varying concentrations) and intracellular Ca^2+ was measured for 5 min prior to the addition of icilin to all wells to achieve a final concentration that produces approximately an 80% maximal response. EC50 or IC50 values for compounds of the present invention were determined from eight-point dose-response studies. Curves were generated using the average of quadruplicate wells for each data point.

T1 sequence (Q1A7N1 1-1104): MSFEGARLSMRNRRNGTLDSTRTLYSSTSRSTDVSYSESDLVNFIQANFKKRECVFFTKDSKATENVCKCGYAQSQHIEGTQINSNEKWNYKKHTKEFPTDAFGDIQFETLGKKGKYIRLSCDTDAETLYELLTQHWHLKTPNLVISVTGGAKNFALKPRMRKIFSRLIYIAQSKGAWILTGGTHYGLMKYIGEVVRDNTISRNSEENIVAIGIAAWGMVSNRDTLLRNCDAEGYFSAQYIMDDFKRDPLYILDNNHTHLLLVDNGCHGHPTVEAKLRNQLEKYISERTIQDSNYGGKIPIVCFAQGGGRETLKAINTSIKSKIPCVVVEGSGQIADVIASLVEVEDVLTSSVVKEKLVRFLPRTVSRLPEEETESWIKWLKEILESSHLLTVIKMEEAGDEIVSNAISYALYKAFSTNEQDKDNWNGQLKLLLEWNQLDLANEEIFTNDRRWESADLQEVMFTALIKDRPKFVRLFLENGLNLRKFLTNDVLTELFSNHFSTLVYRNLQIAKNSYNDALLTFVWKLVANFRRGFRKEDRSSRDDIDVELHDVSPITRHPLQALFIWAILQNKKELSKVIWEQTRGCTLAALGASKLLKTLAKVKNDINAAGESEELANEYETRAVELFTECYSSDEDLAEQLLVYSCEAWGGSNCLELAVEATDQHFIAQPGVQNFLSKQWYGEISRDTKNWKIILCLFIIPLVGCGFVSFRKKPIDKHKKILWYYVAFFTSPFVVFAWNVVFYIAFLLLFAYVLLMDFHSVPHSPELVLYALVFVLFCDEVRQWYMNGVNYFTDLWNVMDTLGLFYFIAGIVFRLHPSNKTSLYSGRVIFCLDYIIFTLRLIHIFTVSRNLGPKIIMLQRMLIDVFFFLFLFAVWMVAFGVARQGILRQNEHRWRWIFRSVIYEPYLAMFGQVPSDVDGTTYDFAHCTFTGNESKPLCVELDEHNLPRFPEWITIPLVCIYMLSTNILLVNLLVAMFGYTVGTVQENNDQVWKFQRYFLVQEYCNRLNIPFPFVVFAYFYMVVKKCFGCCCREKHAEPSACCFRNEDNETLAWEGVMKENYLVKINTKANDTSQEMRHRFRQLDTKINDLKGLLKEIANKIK

Compound	inhibition at 0.2 µM [%]	IC50 [nM]
Cc1c(N(Cc2ccc(OC(F)(F)F)cc2)S(=O)(=O)CCN(C)CCO)sc2ccccc12 [Cpd 10, N-(3-Methylbenzo[b]thiophen-2-yl)-N-(4-trifluoromethoxy-benzyl)-2-(methyl-2-hydroxyethylamino)ethylsulfonamide]	98	29
Cc1c(N(Cc2ccc(OC(F)(F)F)cc2)S(=O)(=O)CCN2CCSCC2)sc2ccccc12 [Cpd 34, N-(3-Methylbenzo[b]thiophen-2-yl)-N-(4-trifluoromethoxy-benzyl)-2-(thiomorpholin-4-yl)ethylsulfonamide]	100	7
CCCN(CCC)CCS(=O)(=O)N(Cc1ccc(OC(F)(F)F)cc1)c1cc2ccccc2s1 [Cpd 1, N-(Benzo[b]thiophen-2-yl)-N-(4-trifluoromethoxy-benzyl)-2-(di-propylamino)ethylsulfonamide]	78	114
Cc1c(N(Cc2ccc(OC(F)(F)F)cc2)S(=O)(=O)CCN2CCOCC2)sc2ccccc12 [Cpd 32, N-(3-Methylbenzo[b]thiophen-2-yl)-N-(4-trifluoromethoxy-benzyl)-2-(morpholin-4-yl)ethylsulfonamide]	99	12
Cc1c(N(Cc2ccc(OC(F)(F)F)cc2)S(=O)(=O)CCN2C[C@@H](C)O[C@@H](C)C2)sc2ccccc12 [Cpd 33, N-(3-Methylbenzo[b]thiophen-2-yl)-N-(4-trifluoromethoxy-benzyl)-2-(cis-2,6-dimethylmorpholin-4-yl)ethylsulfonamide]	100	24
Cc1c(N(Cc2ccc(OC(F)(F)F)cc2)S(=O)(=O)CCN2CCc3ccccc3C2)sc2ccccc12 [Cpd 40, N-(3-Methylbenzo[b]thiophen-2-yl)-N-(4-trifluoromethoxy-benzyl)-2-(1,2,3,4-tetrahydro-isoquinolin-2-yl)ethylsulfonamide]	100	29
CCN(CCS(=O)(=O)N(CCC1CC1)c1sc2ccccc2c1C)CC(C)C [Cpd 94, N-(3-Methylbenzo[b]thiophen-2-yl)-N-(2-cyclopropyl-ethyl)-2-(ethyl-isobutylamino)ethylsulfonamide]	103	27
Cc1c(N(Cc2ccc(OC(F)(F)F)cc2)S(=O)(=O)CCN2CCNC(=O)C2)sc2ccccc12 [Cpd 27, N-(3-Methylbenzo[b]thiophen-2-yl)-N-(4-trifluoromethoxy-benzyl)-2-(3-oxopiperazin-1-yl)ethylsulfonamide]	101	20
Cc1c(N(Cc2ccc(OC(F)(F)F)cc2)S(=O)(=O)CCN2CCS(=O)(=O)CC2)sc2ccccc12 [Cpd 35, N-(3-Methylbenzo[b]thiophen-2-yl)-N-(4-trifluoromethoxy-benzyl)-2-(1,1-dioxothiomorpholin-4-yl)ethylsulfonamide]	97	30
Cc1c(N(Cc2ccc(OC(F)(F)F)cc2)S(=O)(=O)CCN2CCC(C(F)(F)F)CC2)sc2ccccc12 [Cpd 44, N-(3-Methylbenzo[b]thiophen-2-yl)-N-(4-trifluoromethoxy-benzyl)-2-(4-trifluoromethylpiperidin-1-yl)ethylsulfonamide]	99	45
Cc1c(N(Cc2ccc(OC(F)(F)F)cc2)S(=O)(=O)CCNCC(C)C)sc2ccccc12 [Cpd 73, N-(3-Methylbenzo[b]thiophen-2-yl)-N-(4-trifluoromethoxy-benzyl)-2-(isobutylamino)ethylsulfonamide]	19	
Cc1c(N(Cc2ccc(OC(F)(F)F)cc2)S(=O)(=O)CCN2CCNCC2)sc2ccccc12 [Cpd 26, N-(3-Methylbenzo[b]thiophen-2-yl)-N-(4-trifluoromethoxy-benzyl)-2-(piperazin-1-yl)ethylsulfonamide]	23	
CCN(CCS(=O)(=O)N(CCCCC(F)(F)F)c1sc2ccccc2c1C)CC(C)C [Cpd 89, N-(3-Methylbenzo[b]thiophen-2-yl)-N-(5,5,5-tritluoro-n-pent-1-yl)-2-(ethyl-isobutylamino)ethylsulfonamide]	99	36
CCCN(CCS(=O)(=O)N(CCC1CC1)c1sc2ccccc2c1C)CC(C)C [Cpd 95, N-(3-Methylbenzo[b]thiophen-2-yl)-N-(2-cyclopropyl-ethyl)-2-(n-propyl-isobutylamino)ethylsulfonamide]	103	23
Cc1c(N(CCCCC(F)(F)F)S(=O)(=O)CCN2CCC(C(=O)O)CC2)sc2ccccc12 [Cpd 86, N-(3-Methylbenzo[b]thiophen-2-yl)-N-(5,5,5-trifluoropent-1-yl)-2-(4-carboxypiperidin-1-yl)ethylsulfonamide]	34	
CCC(=O)N(CCS(=O)(=O)N(CCCCC(F)(F)F)c1sc2ccccc2c1C)CC(C)C [Cpd 90, N-(3-Methylbenzo[b]thiophen-2-yl)-N-(5,5,5-trifluoro-n-pent-1-yl)-2-(N-propionoyl-isobutylamino)ethylsulfonamide]	92	44

Next, values leading:

inhibition at 0.2 µM [%]	IC50 [nM]	Compound
67		CC(=O)N1CCN(CCS(=O)(=O)N(Cc2ccc(OC(F)(F)F)cc2)c2ccc3ccccc3c2)CC1 [Cpd 58, N-(Naphth-2-yl)-N-(4-trifluoromethoxy-benzyl)-2-(4-acetylpiperazin-1-yl)ethylsulfonamide]
87	42	O=S(=O)(CCN1CCSCC1)N(Cc1ccc(OC(F)(F)F)cc1)c1ccc2ccccc2c1 [Cpd 52, N-(Naphth-2-yl)-N-(4-trifluoromethoxy-benzyl)-2-(thiomorpholin-4-yl)ethylsulfonamide]
99	12	Cc1c(N(Cc2ccc(F)cc2)S(=O)(=O)CCN2CCCC(F)(F)C2)sc2ccccc12 [Cpd 69, N-(3-Methyl-benzo[b]thiophen-2-yl)-N-(4-fluoro-benzyl)-2-(3,3-difluoropiperidin-1-yl)-ethylsulfonamide]
62		CCCN(CCC)CCS(=O)(=O)N(Cc1ccc(OC(F)(F)F)cc1)c1ccc2ccccc2c1 [Cpd 50, N-(Naphth-2-yl)-N-(4-trifluoromethoxy-benzyl)-2-(di-propylamino)ethylsulfonamide]
29		Cc1c(N(CCC2CC2)S(=O)(=O)CCN2CCC(C(=O)O)CC2)sc2ccccc12 [Cpd 87, N-(3-Methylbenzo[b]thiophen-2-yl)-N-(2-cyclopropylethyl)-2-(4-carboxypiperidin-1-yl)ethylsulfonamide]
100	52	Cc1c(N(Cc2ccc(OC(F)(F)F)cc2)S(=O)(=O)CCN2CC(C)CC(C)C2)sc2ccccc12 (stereo not drawn) [Cpd 21, N-(3-Methylbenzo[b]thiophen-2-yl)-N-(4-trifluoromethoxy-benzyl)-2-(3,5-dimethylpiperidin-1-yl)ethylsulfonamide]
97	30	O=S(=O)(CCN1CCCCC1)N(Cc1ccc(OC(F)(F)F)cc1)c1sc2ccccc2c1Cl [Cpd 3, N-(3-Chlorobenzo[b]thiophen-2-yl)-N-(4-trifluoromethoxy-benzyl)-2-(piperidin-1-yl)ethylsulfonamide]
99	17	CCN(CCS(=O)(=O)N(Cc1ccc(OC(F)(F)F)cc1)c1sc2ccccc2c1C)CC(C)C [Cpd 83, N-(3-Methylbenzo[b]thiophen-2-yl)-N-(4-trifluoromethoxy-benzyl)-2-(isobutyl-ethylamino)ethylsulfonamide]
89	59	Cc1c(N(CCC2CC2)S(=O)(=O)CCN(C)Cc2ccccc2)sc2ccccc12 [Cpd 75, N-(3-Methylbenzo[b]thiophen-2-yl)-N-(2-cyclopropyl-ethyl)-2-(benzyl-methylamino)ethylsulfonamide]
100	43	CCC(=O)N(CCS(=O)(=O)N(CCC1CC1)c1sc2ccccc2c1C)CC(C)C [Cpd 93, N-(3-Methylbenzo[b]thiophen-2-yl)-N-(2-cyclopropyl-ethyl)-2-(N-propionoyl-isobutylamino)ethylsulfonamide]
101	35	CC(=O)N(CCS(=O)(=O)N(CCC1CC1)c1sc2ccccc2c1C)CC(C)C [Cpd 92, N-(3-Methylbenzo[b]thiophen-2-yl)-N-(2-cyclopropyl-ethyl)-2-(N-acetyl-isobutylamino)ethylsulfonamide]
101	41	CC(=O)N1CCN(CCS(=O)(=O)N(Cc2ccc(OC(F)(F)F)cc2)c2sc3ccccc3c2Br)CC1 [Cpd 65, N-(3-Bromobenzo[b]thiophen-2-yl)-N-(4-trifluoromethoxy-benzyl)-2-(4-acetyl-1-piperazinyl)ethylsulfonamide]
100	10	Cc1c(N(Cc2ccc(OC(F)(F)F)cc2)S(=O)(=O)CCN2CCC[C@@H]2C(F)(F)F)sc2ccccc12 [Cpd 72, N-(3-Methylbenzo[b]thiophen-2-yl)-N-(4-trifluoromethoxy-benzyl)-2-[2(R)-trifluoromethyl-pyrrolidin-1-yl]ethylsulfonamide]
99	50	CCCN(CCS(=O)(=O)N(CCCCC(F)(F)F)c1sc2ccccc2c1C)CC(C)C [Cpd 91, N-(3-Methylbenzo[b]thiophen-2-yl)-N-(5,5,5-tritluoro-n-pent-1-yl)-2-(n-propyl-isobutylamino)ethylsulfonamide]
